Results published in patent US9975902B2, “Compounds for the inhibition of cyclophilins and uses thereof” (Merck Patent GmbH, priority 2016, dated 2018).
pIC50, pKd: −log10 of the molar value.

Assays:
CypD [1] = target: T1, CypD (Homo sapiens (Human), UniProt P30405); assay: CypD binding assay (competition fluorescence polarisation with fluorescine labelled cyclosporin)
Method: The binding capacity of the compounds was measured using a competition Fluorescence-Polarisation based assay with fluorescine labelled cyclosporin. The protocol used was adapted from Hausch et al, Med Chem lett 2010, p 536.

CypD [2] = target: T1, CypD; assay: SPR binding; details: steady state KD, read-out: SPR CypD (KDss)
Excerpt: Binding was confirmed on an SPR surface using a protocol adapted from Mori et al., J. Biomolecular Screening, 2009, p.

T1 sequence (P30405 30-207): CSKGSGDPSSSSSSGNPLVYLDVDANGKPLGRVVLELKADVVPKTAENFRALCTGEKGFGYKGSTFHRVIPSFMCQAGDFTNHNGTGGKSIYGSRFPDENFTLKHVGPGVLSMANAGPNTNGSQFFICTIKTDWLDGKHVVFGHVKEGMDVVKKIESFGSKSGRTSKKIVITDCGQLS

SMILES	pIC50 (CypD [1])	pKd (CypD [2])
O=C(CN1C(=O)[C@@H]2[C@H]3CC[C@H](C3)[C@@H]2C1=O)NCc1ccc2c(c1)[C@H]1C[C@@H](N2)[C@H](O)CO1 [Compound 1, 2-exo-(3,5-Dioxo-4-aza-tricyclo[5.2.1.02,6]dec-4-yl)-N-((1R,9R,10S)-10-hydroxy-12-oxa-8-aza-tricyclo[7.3.1.02,7]trideca-2(7),3,5-trien-4-ylmethyl)-acetamide]	> 5.00	> 5.00
O=C(CN1C(=O)[C@@H]2[C@@H]3CC[C@@H](C3)[C@@H]2C1=O)NCc1ccc2c(c1)[C@H]1C[C@@H](N2)[C@H](O)CO1 [Compound 3]	> 5.00	> 5.00
Nc1ccc(C2(NC(=O)CN3C(=O)[C@@H]4[C@@H]5CC[C@@H](C5)[C@@H]4C3=O)CC2)cc1 [Compound 5, 2-endo-(3,5-Dioxo-4-aza-tricyclo[5.2.1.02,6]dec-4-yl)-N-[1-(4-amino-phenyl)-cyclopropyl]-acetamide]	3.70 to 5.00	3.70 to 5.00
CCN1Cc2cc(CNC(=O)CN3C(=O)[C@@H]4[C@H]5CC[C@H](C5)[C@@H]4C3=O)ccc2NCCC1=O [Compound 6]	3.70 to 5.00	3.70 to 5.00
Nc1ccc(CCNC(=O)CN2C(=O)C3CCCCC3C2=O)cc1 (stereo not drawn) [Compound 7, N-[2-(4-Amino-phenyl)-ethyl]-2-(1,3-dioxo-octahydro-isoindol-2-yl)-acetamide]	3.70 to 5.00	3.70 to 5.00
Nc1ccc(CNC(=O)CN2C(=O)C3C4CCC(O4)C3C2=O)cc1 (stereo not drawn) [Compound 8, N-(4-Amino-benzyl)-2-(3,5-dioxo-10-oxa-4-aza-tricyclo[5.2.1.02,6]dec-4-yl)-acetamide]	3.70 to 5.00	3.70 to 5.00
O=C(CN1C(=O)[C@@H]2[C@@H]3CC[C@@H](C3)[C@@H]2C1=O)NCCc1ccc2c(c1)CCCN2 [Compound 9, 2-endo-(3,5-Dioxo-4-aza-tricyclo[5.2.1.02,6]dec-4-yl)-N-[2-(1,2,3,4-tetrahydro-quinolin-6-yl)-ethyl]-acetamide]	3.70 to 5.00	3.70 to 5.00
Nc1ccc(CCNC(=O)CN2C(=O)[C@@H]3[C@@H]4CC[C@@H](C4)[C@@H]3C2=O)cc1 [Compound 10, N-endo-[2-(4-Amino-phenyl)-ethyl]-2-(3,5-dioxo-4-aza-tricyclo[5.2.1.02,6]dec-4-yl)-acetamide]	3.70 to 5.00	3.70 to 5.00
CCC1Oc2cc(C(C)NC(=O)CN3C(=O)[C@@H]4[C@@H]5CC[C@@H](C5)[C@@H]4C3=O)ccc2NC1=O (stereo partly drawn) [Compound 11, 2-endo-(3,5-Dioxo-4-aza-tricyclo[5.2.1.02,6]dec-4-yl)-N-[1-(2-ethyl-3-oxo-3,4-dihydro-2H-benzo[1,4]oxazin-7-yl)-ethyl]-acetamide]	3.70 to 5.00	3.70 to 5.00
